{
  "source": "paper PMC7709710",
  "about": "(Investigational new drugs, 2015)",
  "key": {"Hsp70 protein": {"tested_on": "Hsp70 protein", "experiment": "Hsp70 protein in PBMCs by Western blot", "assay_type": "in vivo, human"}, "Hsp90 client proteins": {"tested_on": "Hsp90 client proteins", "experiment": "Reverse phase protein array", "assay_type": "in vivo, human"}, "Hsp70 mRNA": {"tested_on": "Hsp70 mRNA", "experiment": "Hsp70 mRNA by RT-PCR in paired tumor biopsies", "assay_type": "in vivo, human", "conditions": "one patient, dose level 3 (80 mg/m^2/dose), pre-dose vs day 17 of cycle 1"}, "[1]": {"tested_on": "patients with advanced solid tumors", "conditions": "human, in vivo, 4 weeks"}, "[2]": {"experiment": "Plasma and urine pharmacokinetics in patients", "assay_type": "in vivo, human"}, "human xenograft models": {"tested_on": "human xenograft models", "conditions": "several human xenograft models; cited from earlier work"}, "advanced solid tumors": {"tested_on": "advanced solid tumors", "experiment": "Tumor response by RECIST 1.1", "assay_type": "in vivo, human"}, "Hsp27 mRNA": {"tested_on": "Hsp27 mRNA", "experiment": "Hsp27 mRNA by RT-PCR in paired tumor biopsies", "assay_type": "in vivo, human", "conditions": "one patient, dose level 3 (80 mg/m^2/dose), pre-dose vs day 17 of cycle 1"}, "Hsp90": {"target": "Hsp90", "conditions": "cited from earlier work"}, "patients": {"tested_on": "patients", "conditions": "cited from earlier work"}, "[3]": {"conditions": "pre- to post-treatment, RP2D, subgroup 1 (patients 21, 22, 31)"}, "[4]": {"conditions": "pre- to post-treatment, RP2D, subgroup 2 (patients 28, 24, 30, 27, 29)"}, "[5]": {"conditions": "subgroup 1 only (patients 21, 22, 31)"}},
  "data": [
    {"smiles": "CC(C)c1cc(C(=O)N2Cc3ccc(CN4CCN(C)CC4)cc3C2)c(O)cc1O", "note": "[onalespib]", "values": [
      {"measurement": "Hsp70 protein expression in PBMCs at dose level 1", "setting": "Hsp70 protein; Patient #1, dose level 1 (20 mg/m^2)", "value": "no increase in Hsp70 expression"},
      {"measurement": "Hsp70 protein expression in PBMC samples", "setting": "Hsp70 protein; patients at dose levels 2 through 5 (RP2D)", "value": "increased Hsp70 protein expression"},
      {"measurement": "within-patient expression changes of 210 client proteins", "setting": "Hsp90 client proteins; 9 patients, RP2D, baseline vs cycle 1 day 16 or 17", "value": "no proteins with statistically significant changes"},
      {"measurement": "CHK2, mean log2-normalized expression change: group 1", "setting": "Hsp90 client proteins; [3]", "value": 1.0062},
      {"measurement": "MAP2K2, mean log2-normalized expression change: group 1", "setting": "Hsp90 client proteins; [3]", "value": "−0.2937"},
      {"measurement": "PRAS, mean log2-normalized expression change: group 1", "setting": "Hsp90 client proteins; [3]", "value": 0.3038},
      {"measurement": "RAB11A/B, mean log2-normalized expression change: group 1", "setting": "Hsp90 client proteins; [3]", "value": "−0.5853"},
      {"measurement": "Raf-1, mean log2-normalized expression change: group 1", "setting": "Hsp90 client proteins; [3]", "value": "−0.2670"},
      {"measurement": "STAT3, mean log2-normalized expression change: group 1", "setting": "Hsp90 client proteins; [3]", "value": "−0.6103"},
      {"measurement": "STAT5A, mean log2-normalized expression change: group 1", "setting": "Hsp90 client proteins; [3]", "value": 0.5016},
      {"measurement": "c-Src, mean log2-normalized expression change: group 1", "setting": "Hsp90 client proteins; [3]", "value": "−0.5997"},
      {"measurement": "eEF-2 kinase, mean log2-normalized expression change: group 1", "setting": "Hsp90 client proteins; [3]", "value": 0.9679},
      {"measurement": "serpin E1, mean log2-normalized expression change: group 1", "setting": "Hsp90 client proteins; [3]", "value": "−3.0031"},
      {"measurement": "CHK2, mean log2-normalized expression change: group 2", "setting": "Hsp90 client proteins; [4]", "value": 0.1233},
      {"measurement": "MAP2K2, mean log2-normalized expression change: group 2", "setting": "Hsp90 client proteins; [4]", "value": 0.1770},
      {"measurement": "PRAS, mean log2-normalized expression change: group 2", "setting": "Hsp90 client proteins; [4]", "value": "−0.1004"},
      {"measurement": "RAB11A/B, mean log2-normalized expression change: group 2", "setting": "Hsp90 client proteins; [4]", "value": 0.0826},
      {"measurement": "Raf-1, mean log2-normalized expression change: group 2", "setting": "Hsp90 client proteins; [4]", "value": "−0.0855"},
      {"measurement": "STAT3, mean log2-normalized expression change: group 2", "setting": "Hsp90 client proteins; [4]", "value": 0.0176},
      {"measurement": "STAT5A, mean log2-normalized expression change: group 2", "setting": "Hsp90 client proteins; [4]", "value": "−0.0725"},
      {"measurement": "c-Src, mean log2-normalized expression change: group 2", "setting": "Hsp90 client proteins; [4]", "value": "−0.0664"},
      {"measurement": "eEF-2 kinase, mean log2-normalized expression change: group 2", "setting": "Hsp90 client proteins; [4]", "value": "−0.0370"},
      {"measurement": "serpin E1, mean log2-normalized expression change: group 2", "setting": "Hsp90 client proteins; [4]", "value": 0.2094},
      {"measurement": "decrease in CHK1 phosphorylation after treatment", "setting": "Hsp90 client proteins; [5]", "value": "> 2", "unit": "fold"},
      {"measurement": "decrease in CHK2 phosphorylation after treatment", "setting": "Hsp90 client proteins; [5]", "value": "> 2", "unit": "fold"},
      {"measurement": "induction of Hsp70 mRNA following treatment", "setting": "Hsp70 mRNA", "value": "> 1.5", "unit": "fold"},
      {"measurement": "recommended phase 2 dose (RP2D)", "setting": "[1]", "value": 160, "unit": "mg/m^2/dose"},
      {"measurement": "urinary drug excretion", "setting": "[2]; 24 h after drug administration", "value": "< 10", "unit": "%"},
      {"measurement": "plasma accumulation of drug with repeated dosing", "setting": "[2]; day 1 vs day 15 of cycle 1", "value": "no significant plasma accumulation"},
      {"measurement": "plasma exposure to drug (AUC) versus dose", "setting": "[2]; doses 20–210 mg/m^2", "value": "proportional to dose"},
      {"measurement": "half-life", "setting": "[2]; human, plasma, intravenous", "value": "~8", "unit": "h"},
      {"measurement": "tumor growth inhibition, QDx2/week versus other schedules", "setting": "human xenograft models", "value": "consistently greater tumor growth inhibition"},
      {"measurement": "tumor responses", "setting": "advanced solid tumors; 31 patients treated", "value": "No responses were observed"},
      {"measurement": "longest time on study (one patient with hepatocellular carcinoma)", "setting": "advanced solid tumors; in vivo", "value": 6, "unit": "cycles"},
      {"measurement": "induction of Hsp27 mRNA following treatment", "setting": "Hsp27 mRNA", "value": "> 2", "unit": "fold"},
      {"measurement": "Kd", "setting": "Hsp90", "value": 0.71, "unit": "nM"},
      {"measurement": "patients with visual disturbances", "setting": "patients; 120 mg/m^2/dose twice weekly", "value": "10 of 13"},
      {"measurement": "maximum-tolerated-dose", "setting": "patients; twice weekly dosing, days 1, 4, 8, 11, 15, 18 in 28 day cycles", "value": 120, "unit": "mg/m^2/dose"}
    ]}
  ]
}
